Where two headings read alike, the source gives them in different places.
Key:
[1] = format: physicochemical
Experimental: Hereinafter, unless specified otherwise the solubility of material is determined in reverse osmosis (RO) water at room temperature. Where the solubility is expressed as “%” it to be understood as number of grams of material soluble in 100 grams of solvent.
The temperature was increased at 1° C. per minute to 121° C. The mixture was maintained at 121° C. for 1 hour and then the temperature was decreased to 80° C., at 1° C. per minute, and the obtained solution was spray dried using YC-015 laboratory spray drier (Shanghai Pilotech Instrument & Equipment Co. Ltd., China) operating at 175° C. inlet and 100° C. outlet temperature. Solution was maintained at 80° C. to prevent premature crystallization.
Solubility were evaluated for Reb A, Reb B, mechanical blends of Reb A and Reb B powders of different ratios, and mixtures of Reb A and Reb B prepared according to process described in EXAMPLE 1.

[2] = Sweetness factor (SF) determination by trained panel in water; settings: for Calculated SF (sweetness factor) / Usage Level, % (concentration corresponding to 5% sucrose equivalent sweetness): in water, 5% SE
Experimental: The sweetness factors for different sweetener from all major groups were measured by tasting several concentrations of each sweetener in water by trained panel. From the sensory test at a, the concentration (%) that corresponds to the 5% sucrose equivalent (SE) sweetness were estimated and listed in Table 2. The sweetness equivalent (SE) of high intensity sweeteners (HIS) varies according to the target sugar equivalent sweetness levels, that are tested as shown in Table 3.

[3] = Trained panel evaluation, no fat (NF) yogurt; settings: formulas of Table 6
Experimental: Samples were prepared according to formulas outlined below in Table 6. Samples included a full sugar reference, an aspartame reference, a Reb A control and several test samples with a Reb A/Reb B blends. The samples were evaluated by a trained panel and screened for overall sweetness, bitterness, astringency, mouth coating, flavor intensity, acidity/tartness, sweet lingering and bitter lingering.

[4] = Trained panel evaluation, chocolate milk; settings: sugar-equivalent sweetness around 5.5%
Experimental: A series of samples were prepared to having sugar-equivalent sweetness around 5.5%. The control sample was sweetened with 5.5% sugar the test samples were sweetened with different ratios of Reb A/Reb as shown in Table 7 below. The samples were evaluated by a trained panel and screened for overall sweetness, bitterness, astringency, mouth coating, flavor intensity, acidity/tartness, sweet lingering and bitter lingering.

[5] = cited from earlier work
[6] = Chang and Cook 1983; cited from earlier work
[7] = room temperature; reported values; cited from earlier work
[8] = Sugar equivalent sweetness of sweetener/Reb B combinations in plain water, trained panel; settings: Reb B at 50, 150 and 300 ppm with sweeteners of Table 2
Experimental: In one embodiment, Reb B was combined (at 50, 150 and 300 ppm) with several sweeteners listed in Table 2 to make solutions in plain water. Some of the sweeteners were tested at two different concentrations to obtain around 2% sugar equivalent sweetness without any Reb B. A trained panel conducted sensory tests to determine the effect of the addition of different amounts of Reb B to each sweetener on overall sweetness quality and intensity as shown in Table 4.

[9] = Descriptive sensory evaluation of sweetener solutions in water by trained panel
Experimental: In another embodiment, Stevia sweetener (Reb A, Reb B or blends thereof) solutions were made by completely dissolving Stevia into distilled water. Solutions were tasted and evaluated by a trained panel. […] All solutions were made with different mass ratio of Reb A and Reb Bas shown in FIG. 3 to get the 7% sweetness equivalent. Reb B a mount varied between 20 mg/kg to 150 mg/kg.
All sensory attributes were rated by trained panelists on a scale of zero (0) to ten (10). Samples were presented in a randomized fashion and labeled with three-digit codes.
Sweet Onset—This attribute describes the time at which panelists perceived sweetness upon placing the sample in the mouth. A score of zero indicates immediate identification of sweetness, whereas a score of ten indicates a long delay in the time that sweetness was perceived.
Total Sweetness—This attribute describes the highest intensity of sweetness perceived during tasting. A score of zero indicates no sweetness, while a score of ten indicates very high sweetness.
Bitterness—This attribute describes the highest intensity of bitterness perceived during tasting. A score of zero indicates no bitterness, while a score of ten indicates very high bitterness.
Rounded Sweetness—This attribute describes the duration of sweetness while samples are in the mouth.
Flavor Intensity—This attribute describes the highest intensity of flavor perceived during tasting. A score of zero indicates no flavor, while a score of ten indicates very high flavor.
Astringency—This attribute describes the highest intensity of astringency perceived during tasting. A score of zero indicates no astringency, while a score of ten indicates very high astringency.
Mouth Coating—This attribute describes the highest intensity of sweetness coating perceived while samples are in the mouth.
Sweet Lingering—This attribute describes the highest intensity of sweetness perceived after the sample has been swallowed.
Bitter Lingering—This attribute describes the highest intensity of bitterness perceived after the sample has been swallowed.
Aftertaste Mouth Coating—This attribute describes the highest intensity of sweetness coating perceived after the sample has been swallowed.
Tartness—This attribute describes the highest intensity of tartness perceived during tasting. A score of zero indicates no tartness, while a score of ten indicates very high tartness.
Cooling Sensation—This attribute describes the highest intensity of cooling sensation perceived during tasting. A score of zero indicates no cooling sensation, while a score of ten indicates very high cooling sensation.
Water solution of mogroside (100 ppm) sweetener was tested against solutions made with mogroside (100 ppm)+Reb B (300 ppm) and mogroside (100 ppm)+Reb A/B (Example 3) blend (128 ppm) by a 13 members trained panel.
Water solution of sucralose (40 ppm) was tested against solutions made with sucralose (40 ppm)+Reb B (150 ppm) and sucralose (40 ppm)+Reb A/Reb B (Example 3) blend (68 ppm) by a 13 members trained panel.
Water solution of erythritol (5%) was tested against solutions made with erythritol (5%)+Reb B (50 ppm) and erythritol (5%)+Reb A/Reb B (Example 3) blend (22 ppm) by a 13 members trained panel.
Fructo-oligosaccharide or FOS solution (21%) was tested against solutions made with FOS (21%)+Reb B (150 ppm) and FOS (21%)+Reb A/Reb B (Example 3) blend (68 ppm) by a 13 members trained panel.

[10] = Descriptive sensory evaluation, lime-tequila margarita alcoholic beverage; settings: FOS 21% + Reb B 150 ppm, about 10% alcohol
Experimental: The Fructo-oligosaccharide (FOS) sweetener and the steviol glycosides compositions (described in EXAMPLE 12) were used for making an alcoholic beverage—lime-tequila margarita drink using Margarita pre-mix from FIS (Flavor International Systems), recommended usage was 0.4%. Prepared Lime Tequila Margarita blank containing about 10% alcohol, no sugar added. To sweeten the beverage, used FOS (21%), FOS+Reb B (150 ppm), and FOS+Reb A/Reb B (68 ppm). Descriptive Sensory evaluation was conducted with 8-13 panelists.

[11] = Descriptive sensory evaluation, peppermint mouthwash, 8 panelists; settings: Maltitol 6.44% + Reb B 50 or 150 ppm
Experimental: A commercial unsweetened (no sugar or sweetener) peppermint mouthwash product (Brand: The Natural Dentist) was used to determine the effect of Reb B with other sweetener, as example maltitol, a sugar alcohol on the sensory profile of mouthwash. Mouthwash samples were sweetened with Maltitol (6.44%), Maltitol+Reb B (50 ppm), Maltitol+Reb B (150 ppm). Descriptive sensory evaluation was conducted with 8 panelists. They evaluated several attributes including sweet onset, total sweetness, bitterness, rounded sweetness, flavor intensity, astringency, mouth coating, sweet lingering, bitter lingering, aftertaste mouth coating, tartness.

[12] = sensory evaluations, Crammer and Ikan 1986

SMILES	Sweetness factor ([2]; SE level 5.0%)	Sweetness factor ([2]; SE level 7.5%)	Sweetness factor ([2]; SE level 10.0%)	Sweetness factor ([2]; SE level […])	Calculated SF (sweetness factor) [2]	Usage Level, % (concentration corresponding to 5% sucrose equivalent sweetness) [2] [%]	times sweeter than sucrose [5, 12]	stability in carbonated beverages [6]	water solubility [7]	further results
C=C1C[C@@]23CC[C@H]4[C@@](C)(CCC[C@@]4(C)C(=O)O[C@@H]4O[C@H](CO)[C@@H](O)[C@H](O)[C@H]4O)[C@@H]2CC[C@]1(O[C@@H]1O[C@H](CO)[C@@H](O)[C@H](O[C@@H]2O[C@H](CO)[C@@H](O)[C@H](O)[C@H]2O)[C@H]1O[C@@H]1O[C@H](CO)[C@@H](O)[C@H](O)[C@H]1O)C3 [Reb A, Rebaudioside A]	290	250	200	400	291	0.0172	350-450 times	heat and pH stability	0.8%	water solubility [1]: around 1%; acidity [3]: enhanced the acidity of the yogurt; bitterness [3]: bitterness at the end; sweetness and flavor profile [4]: separate peaks for sweetness, dairy notes, and cocoa notes; sensory attributes among major steviol glycosides ([5]; Tanaka 1987, Phillips 1989): the least astringent, the least bitter, and the least persistent aftertaste
C=C1C[C@@]23CC[C@H]4[C@@](C)(CCC[C@@]4(C)C(=O)O)[C@@H]2CC[C@]1(O[C@@H]1O[C@H](CO)[C@@H](O)[C@H](O[C@@H]2O[C@H](CO)[C@@H](O)[C@H](O)[C@H]2O)[C@H]1O[C@@H]1O[C@H](CO)[C@@H](O)[C@H](O)[C@H]1O)C3 [Reb B, Rebaudioside B]	126	95	59	146	126	0.0397	300-350 times		about 0.1%	Solubility in water [1]: No*; effect of addition of Reb B on overall sweetness quality and intensity [8]: generally increased upfront sweetness, made the sweetness profile rounded and contributed to sweetness lingering at a higher level; sweetness and sweetness profile versus FOS solution ([9]; FOS 21% + Reb B 150 ppm or Reb A/Reb B 68 ppm): significantly higher sweetness and made the sweetness profile rounded; onset of sweetness, peak sweetness and sweetness lingering versus erythritol solution ([9]; water, erythritol 5% + Reb B 50 ppm): improved the onset of sweetness and the peak sweetness without increasing the sweetness lingering; taste (sweetness, bitterness, cooling effect) versus erythritol solution ([9]; water, erythritol 5% + Reb B 50 ppm or Reb A/Reb B 22 ppm): improved the taste of erythritol sample significantly by increasing the sweetness and reducing the bitterness and cooling effect; taste attributes versus mogroside solution ([9]; water, mogroside 100 ppm + Reb B 300 ppm or Reb A/B 128 ppm): increases sweetness level significantly, improves the onset of sweetness and decreases the bitterness; onset of sweetness and off taste versus sucralose solution ([9]; water, sucralose 40 ppm + Reb B 150 ppm): improved the onset of sweetness and decreased the off taste slightly; sweetness level versus sucralose solution ([9]; water, sucralose 40 ppm + Reb B 150 ppm or Reb A/Reb B 68 ppm): significantly higher sweetness level; flavor intensity, bitter lingering and tartness [10]: decrease in flavor intensity, bitter lingering, and tartness; sweetness profile of the alcoholic beverage [10]: sweetness onset was earlier in the profile, and there was an increase in total sweetness and the sweetness profile was more rounded; all other sensory attributes [11]: generally unchanged; sweetness onset and total sweetness [11]: created an earlier sweetness onset, and higher total sweetness
C=C1C[C@@]23CC[C@H]4[C@@](C)(CCC[C@@]4(C)C(=O)O[C@@H]4O[C@H](CO)[C@@H](O)[C@H](O)[C@H]4O)[C@@H]2CC[C@]1(O[C@@H]1O[C@H](CO)[C@@H](O)[C@H](O)[C@H]1O[C@@H]1O[C@H](CO)[C@@H](O)[C@H](O)[C@H]1O)C3 [stevioside]								heat and pH stability		times sweeter than sucrose ([5]; as usually found, literature): 110-270 times
